Data on 22 molecules can be found in patent US9718819B2 (Merck Sharp & Dohme Corp., priority 2012, dated 2017).

In the first assay the target is HIV-1 RT wild-type enzyme (Human immunodeficiency virus type 1 group M subtype B (isolate HXB2) (HIV-1), UniProt P04585). As to the kind of experiment: HIV-1 reverse transcriptase inhibitory activity (RT polymerase assay).
Details: not given
Type of assay: biochemical. The procedure: Determination of HIV-1 Reverse Transcriptase Inhibitory Activity
The heterodimeric nucleic acid substrate used in the HIV-1 RT polymerase reactions was generated by annealing the DNA primer, biotinylated pD500 (Sigma Aldrich, USA, 5′-biotin-ttg aaa tga ctg cgg tac ggc-3′), SEQ ID NO. 1 to the nucleotide RNA template t500 (derived from hepatitis C virus [HCV] sequence, IBA, Germany, 5′-[…]-3′), SEQ ID NO 2). […] The mixture was then preincubated on an orbital shaker for 30 min at room temperature in microtiter plates (Costar 3365, Corning, USA). A polymerization reaction was initiated by the addition of RNA template/pD500 DNA primer hybrid (16.6 nM final of RNA/DNA hybrid) and dNTPs (2 μM dATP, dGTP, dCTP and 66.6 nM Ru-dUTP (Meso Scale Discovery, USA)). Plate was sealed and incubated for 5-10 min at room temperature on an orbital shaker. Plate was then incubated for 90 min at 37° C. and reactions quenched with 60 μl quenching buffer (50 mM EDTA, 0.7% BSA, 0.7% Tween-20, 0.017% sodium azide in PBS). The resulting solution was incubated at room temperature for an additional 5 min and then 50 μL was transferred to pre-blocked Avidin plates (L15AA, Meso Scale Discovery). Each well of Avidin plate was blocked for 1 h at room temperature with 100 μL 5% BSA in PBS. Blocking solution was removed by tapping vigorously on filter paper to remove all excess liquid. Reaction on pre-blocked avidin plate proceeded for 60 min at room temperature and then contents removed by tapping vigorously on filter paper to remove all excess liquid. After washing plate 3 times with 150 μL 1×PBS and blotting dry between cycles, 150 μL 1× Read Buffer T (4× Read Buffer T, Meso Scale Discovery) was added and incubated for 5 min at room temperature before counting on a Sector Imager […] (Meso Scale Discovery). Titration curves and IC50 values were calculated using a four parameter logisitc fit according to standard procedures. Briefly, % Inhibition=100×((sample raw value)−(mean value of the low control or 0% inhibition))/((mean value of wells representing 100% inhbition)−(mean value of 0% inhbition)). In this assay, low control wells contain DMSO (0% inhbition) and 100% inhibition wells contain 1 μM efavirenz.
The molecule `N#Cc1cc(Cl)cc(Oc2c(C(F)(F)F)ncn(Cc3cc(CO)c(=O)[nH]n3)c2=O)c1` [Example 12, 3-chloro-5-((1-((5-(hydroxymethyl)-6-oxo-1,6-dihydropyridazin-3-yl)methyl)-6-oxo-4-(trifluoromethyl)-1,6-dihydropyrimidin-5-yl)oxy)benzonitrile] yielded an IC50 of 32 nM.

The same assay, now with this note: HIV-1 RT wild-type enzyme 83 pM; RNA-dependent DNA polymerase activity; read-out: IC50.
As for `N#Cc1cc(Cl)cc(Oc2c(C(F)(F)F)ncn(Cc3n[nH]c(=O)c4cccnc34)c2=O)c1` [Example 1, 3-chloro-5-((6-oxo-1-((5-oxo-5,6-dihydropyrido[2,3-d]pyridazin-8-yl)methyl)-4-(trifluoromethyl)-1,6-dihydropyrimidin-5-yl)oxy)benzonitrile], the half-maximal inhibitory concentration (IC50) came out at 191 nM.

Consider `N#Cc1cc(Cl)cc(Oc2c(C(F)(F)F)ncn(Cc3cnc(O)cn3)c2=O)c1` [Example 2, 3-chloro-5-((1-((5-hydroxypyrazin-2-yl)methyl)-6-oxo-4-(trifluoromethyl)-1,6-dihydropyrimidin-5-yl)oxy)benzonitrile], for which the IC50 was 118 nM.

For the molecule `Cn1cc(Cn2cnc(C(F)(F)F)c(Oc3cc(Cl)cc(C#N)c3)c2=O)ncc1=O` [Example 3, 3-chloro-5-((1-((4-methyl-5-oxo-4,5-dihydropyrazin-2-yl)methyl)-6-oxo-4-(trifluoromethyl)-1,6-dihydropyrimidin-5-yl)oxy)benzonitrile], the IC50 worked out at 33 nM.

On to `N#Cc1cc(Cl)cc(Oc2c(C(F)(F)F)ncn(Cc3ncc[nH]c3=O)c2=O)c1` [Example 4, 3-chloro-5-((6-oxo-1-((3-oxo-3,4-dihydropyrazin-2-yl)methyl)-4-(trifluoromethyl)-1,6-dihydropyrimidin-5-yl)oxy)benzonitrile], for which the IC50 was found to be 124 nM.

Turning to `N#Cc1cc(Cl)cc(Oc2c(C(F)(F)F)ncn(Cc3ccn[nH]c3=O)c2=O)c1` [Example 5, 3-chloro-5-((6-oxo-1-((3-oxo-2,3-dihydropyridazin-4-yl)methyl)-4-(trifluoromethyl)-1,6-dihydropyrimidin-5-yl)oxy)benzonitrile], the half-inhibitory concentration (IC50) was found to be 6 nM.

For `[2H]C([2H])(c1ccc(=O)[nH]n1)n1cnc(C(F)(F)F)c(Oc2cc(Cl)cc(C#N)c2)c1=O` [Example 8], the IC50 is 9 nM.

As for `N#Cc1cc(Cl)cc(Oc2c(C(F)(F)F)ncn(Cc3cc(C4CC(F)(F)C4)c(=O)[nH]n3)c2=O)c1` [Example 9, 3-chloro-5-((1-((5-(3,3-difluorocyclobutyl)-6-oxo-1,6-dihydropyridazin-3-yl)methyl)-6-oxo-4-(trifluoromethyl)-1,6-dihydropyrimidin-5-yl)oxy)benzonitrile], the IC50 worked out at 109 nM.

As to `CC(C)c1cc(Cn2cnc(C(F)(F)F)c(Oc3cc(Cl)cc(C#N)c3)c2=O)n[nH]c1=O` [Example 10, 3-chloro-5-((1-((5-isopropyl-6-oxo-1,6-dihydropyridazin-3-yl)methyl)-6-oxo-4-(trifluoromethyl)-1,6-dihydropyrimidin-5-yl)oxy)benzonitrile], the IC50 was found to be 7 nM.

As for `CC(C)(O)c1cc(Cn2cnc(C(F)(F)F)c(Oc3cc(Cl)cc(C#N)c3)c2=O)n[nH]c1=O` [Example 11, 3-chloro-5-((1-((5-(2-hydroxypropan-2-yl)-6-oxo-1,6-dihydropyridazin-3-yl)methyl)-6-oxo-4-(trifluoromethyl)-1,6-dihydropyrimidin-5-yl)oxy)benzonitrile], the IC50 stood at 124 nM.

As for `Cc1ncn(Cc2ccc(=O)[nH]n2)c(=O)c1Oc1cc(Cl)cc(C#N)c1` [Example 13, 3-chloro-5-((4-methyl-6-oxo-1-((6-oxo-1,6-dihydropyridazin-3-yl)methyl)-1,6-dihydropyrimidin-5-yl)oxy)benzonitrile], the IC50 was found to be 29 nM.

Regarding `CC(O)c1cc(Cn2cnc(C(F)(F)F)c(Oc3cc(Cl)cc(C#N)c3)c2=O)n[nH]c1=O` (stereo not shown) [Example 14, 3-chloro-5-((1-((5-(1-hydroxyethyl)-6-oxo-1,6-dihydropyridazin-3-yl)methyl)-6-oxo-4-(trifluoromethyl)-1,6-dihydropyrimidin-5-yl)oxy)benzonitrile], the IC50 amounted to 109 nM.

`CC(F)c1cc(Cn2cnc(C(F)(F)F)c(Oc3cc(Cl)cc(C#N)c3)c2=O)n[nH]c1=O` (stereo not shown) [Example 15, 3-chloro-5-((1-((5-(1-fluoroethyl)-6-oxo-1,6-dihydropyridazin-3-yl)methyl)-6-oxo-4-(trifluoromethyl)-1,6-dihydropyrimidin-5-yl)oxy)benzonitrile]: the IC50 was found to be 13 nM.

Consider `N#Cc1cc(Cl)cc(Oc2c(C(F)(F)F)ncn(Cc3cc(CF)c(=O)[nH]n3)c2=O)c1` [Example 16, 3-chloro-5-((1-((5-(fluoromethyl)-6-oxo-1,6-dihydropyridazin-3-yl)methyl)-6-oxo-4-(trifluoromethyl)-1,6-dihydropyrimidin-5-yl)oxy)benzonitrile], for which the IC50 is 12 nM.

Turning to `N#Cc1cc(Cl)cc(Oc2c(C(F)(F)F)ncn(Cc3cc(C(O)C4CC4)c(=O)[nH]n3)c2=O)c1` (stereo not shown) [Example 17, 3-chloro-5-((1-((5-(cyclopropyl(hydroxy)methyl)-6-oxo-1,6-dihydropyridazin-3-yl)methyl)-6-oxo-4-(trifluoromethyl)-1,6-dihydropyrimidin-5-yl)oxy)benzonitrile], the IC50 came out at 179 nM.

With `N#Cc1cc(Cl)cc(Oc2c(C(F)(F)F)ncn(Cc3ccc(=O)[nH]n3)c2=O)c1Cl` [Example 18, 2,5-dichloro-3-((6-oxo-1-((6-oxo-1,6-dihydropyridazin-3-yl)methyl)-4-(trifluoromethyl)-1,6-dihydropyrimidin-5-yl)oxy)benzonitrile], the IC50 came to 5 nM.

For the molecule `N#Cc1cc(F)cc(Oc2c(C(F)(F)F)ncn(Cc3ccc(=O)[nH]n3)c2=O)c1` [Example 19, 3-fluoro-5-((6-oxo-1-((6-oxo-1,6-dihydropyridazin-3-yl)methyl)-4-(trifluoromethyl)-1,6-dihydropyrimidin-5-yl)oxy)benzonitrile], the IC50 is 31 nM.

`N#Cc1cc(Oc2c(C(F)(F)F)ncn(Cc3ccc(=O)[nH]n3)c2=O)cc(C(F)(F)F)c1` [Example 20, 3-((6-oxo-1-((6-oxo-1,6-dihydropyridazin-3-yl)methyl)-4-(trifluoromethyl)-1,6-dihydropyrimidin-5-yl)oxy)-5-(trifluoromethyl) benzonitrile]: the IC50 is 24 nM.

As to `O=c1ccc(Cn2cnc(C(F)(F)F)c(Oc3cc(Cl)cc(C(F)(F)F)c3)c2=O)n[nH]1` [Example 21, 6-((5-(3-chloro-5-(trifluoromethyl)phenoxy)-6-oxo-4-(trifluoromethyl)pyrimidin-1(6H)-yl)methyl)pyridazin-3(2H)-one], the IC50 was 29 nM.

On to `N#Cc1cc(Cl)cc(Oc2c(C(F)(F)F)ncn(Cc3cc(-c4ccccc4)c(=O)[nH]n3)c2=O)c1` [Example 22], for which the IC50 is 3 nM.

Consider `Cn1nc(Cn2cnc(C(F)(F)F)c(Oc3cc(Cl)cc(C#N)c3)c2=O)cc(Br)c1=O` [Example 23], for which the IC50 was found to be 38 nM.

For the molecule `N#Cc1cc(Cl)cc(Oc2c(C(F)(F)F)ncn(Cc3cc(-c4ccc(OC(F)(F)F)cc4)c(=O)[nH]n3)c2=O)c1` [Example 24, 3-chloro-5-((6-oxo-1-((6-oxo-5-(4-(trifluoromethoxy)phenyl)-1,6-dihydropyridazin-3-yl)methyl)-4-(trifluoromethyl)-1,6-dihydropyrimidin-5-yl)oxy)benzonitrile], the IC50 was determined as 24 nM.

Usually IC50 stands for the midpoint of a concentration-inhibition curve.
